Measured values as given in patent publication US11465987B2, “Compounds for treatment of cancer” (ONCTERNAL THERAPEUTICS, INC., priority 2012, dated 2022).
Read-outs that look alike come from different tables or passages of the source.

Experiments:
[1] = system: melanoma and prostate cancer cell lines; experiment: Antiproliferative activity summarised over the cell line panel (range or average); format: cell-based
[2] = system: PC-3 human prostate cancer cell line; experiment: cells
Description: (§1) Cells were stained with SRB solution.

[3] = system: A375 human melanoma cell line; experiment: Cytotoxicity (SRB) assay, A375; format: cell-based
[4] = system: LNCaP human prostate cancer cell line; experiment: Cytotoxicity (SRB) assay, LNCaP; format: cell-based
Description: as §1

[5] = system: PPC-1 human prostate cancer cell line; experiment: Cytotoxicity (SRB) assay, PPC-1; format: cell-based
Description: as §1

[6] = system: B16-F1 mouse melanoma cell line; experiment: Cytotoxicity (SRB) assay, B16-F1; format: cell-based
[7] = system: DU 145 human prostate cancer cell line; experiment: Cytotoxicity (SRB) assay, DU 145; format: cell-based
Description: as §1

[8] = system: WM-164 human melanoma cell line; experiment: Cytotoxicity (SRB) assay, WM-164; format: cell-based
[9] = Homo sapiens, read-out: IC50 PC-3, SRB assay, prostate cancer PC-3
[10] = Homo sapiens, A-375, SRB assay, human melanoma A375, read-out: IC50 A375
[11] = Homo sapiens, LNCaP, SRB assay, prostate cancer LNCaP, read-out: IC50 LNCaP
[12] = Homo sapiens, PPC-1, SRB assay, prostate cancer PPC-1, read-out: IC50 PPC-1
[13] = Mus musculus, B16-F1, SRB assay, mouse melanoma B16-F1, read-out: IC50 B16-F1
[14] = Homo sapiens, DU-145, SRB assay, prostate cancer DU 145, read-out: IC50 DU 145
[15] = Homo sapiens, read-out: IC50 ± SEM, PC-3, Table 12
[16] = Homo sapiens, A-375, Table 12, read-out: IC50 ± SEM, A375 (converted)
[17] = Homo sapiens, WM164, Table 12, read-out: IC50 ± SEM, WM164 (converted)
[18] = Mus musculus, B16-F1, Table 12, read-out: IC50 ± SEM, B16-F1 (converted)
[19] = read-out: IC50 (range over tested cell lines)
[20] = read-out: inhibitory effects, PC3, Table 13A
[21] = Table 13A, read-out: inhibitory effects, LNCaP
[22] = Table 13A, read-out: inhibitory effects, PPC1
[23] = Table 13A, read-out: inhibitory effects, DU145
[24] = Homo sapiens, read-out: inhibitory effects, PC3, Table 13A
[25] = Homo sapiens, LNCaP, Table 13A, read-out: inhibitory effects, LNCaP
[26] = Homo sapiens, PPC-1, Table 13A, read-out: inhibitory effects, PPC1
[27] = Homo sapiens, DU-145, Table 13A, read-out: inhibitory effects, DU145
[28] = Homo sapiens, read-out: IC50 ± SEM, PC-3, Table 6A
[29] = Homo sapiens, LNCaP, Table 6A, read-out: IC50 ± SEM, LNCaP (converted)
[30] = Homo sapiens, PPC-1, Table 6A, read-out: IC50 ± SEM, PPC-1 (converted)
[31] = Homo sapiens, DU-145, Table 6A, read-out: IC50 ± SEM, DU 145
[32] = Homo sapiens, read-out: IC50 ± SEM, PC-3
[33] = Homo sapiens, LNCaP, read-out: IC50 ± SEM, LNCaP
[34] = Homo sapiens, PPC-1, read-out: IC50 ± SEM, PPC-1
[35] = Homo sapiens, DU-145, read-out: IC50 ± SEM, DU 145

## COc1cc(C(=O)c2cccc(-c3ccccc3)n2)cc(OC)c1OC [1c, (6-Phenylpyridin-2-yl)(3,4,5-trimethoxyphenyl)methanone]
[1]; range over prostate cancer cell lines, read-out: IC50 range against prostate cancer cells
  IC50: 12 to 35 nM
[2]; [9]
  IC50: 32 ± 2 nM
[3]; [10]
  IC50: 30 ± 14 nM
[4]; [11]
  IC50: 27 ± 2 nM
[5]; [12]
  IC50: 25 ± 1 nM
[6]; [13]
  IC50: 39 ± 12 nM
[7]; [14]
  IC50: 33 ± 3 nM

## COc1cc(C(=O)c2csc(-c3ccc(N(C)C)cc3)n2)cc(OC)c1OC [2o, (2-(4-(Dimethylamino)phenyl)thiazol-4-yl)(3,4,5-trimethoxyphenyl)methanone]
[2]; [9]
  IC50: 73 nM
[3]; [10]
  IC50: 38 nM
[4]; [11]
  IC50: 65 nM
[5]; [12]
  IC50: 73 nM
[6]; [13]
  IC50: 42 nM
[7]; [14]
  IC50: 121 nM

## COc1cc(/C=C\c2csc(-c3ccccc3)n2)cc(OC)c1OC [3a, (Z)-2-Phenyl-4-(3,4,5-trimethoxystyryl)thiazole]
[1]; Tables 1-3
  antiproliferative activity in words: lost activity
[2]; Homo sapiens, read-out: IC50 PC-3
  IC50: > 10000 nM
[8]; Homo sapiens, WM164, read-out: IC50 WM164
  IC50: 10600 ± 5800 nM

## COc1cc(Sc2cccc(-c3ccccc3)c2)cc(OC)c1OC [4a, Biphenyl-3-yl(3,4,5-trimethoxyphenyl)sulfane]
[2]; [9]
  IC50: > 10000 nM
[3]; [10]
  IC50: 1600 ± 400 nM
[4]; [11]
  IC50: 2300 ± 200 nM

## COc1cc(C(=O)c2c[nH]c(-c3ccc(F)cc3)n2)cc(OC)c1OC [12ba, (2-(4-fluorophenyl)-1H-imidazol-4-yl)(3,4,5-trimethoxyphenyl)methanone]
[2]; [15]
  IC50: 169 ± 12 nM
[3]; [16]
  IC50: 205 ± 19 nM
[8]; [17]
  IC50: 73 ± 8 nM
[6]; [18]
  IC50: 320 ± 41 nM

## Cc1ccc(-c2nc(C(=O)c3ccc(F)cc3)c[nH]2)cc1 [12db, (4-fluorophenyl)(2-(p-tolyl)-1H-imidazol-4-yl)methanone]
[1]; [19]
  IC50: 7.9 to 110 nM
[8]; [17]
  IC50: 156 nM
[5]; Homo sapiens, PPC-1, Table 12, read-out: IC50 ± SEM, PPC-1 (converted)
  IC50: 54 nM
[6]; [18]
  IC50: 222 nM

## COc1cc(C(=O)c2c[nH]c(-c3cc(OC)c(OC)c(OC)c3)n2)cc(OC)c1OC [12ea, (3,4,5-trimethoxyphenyl)(2-(3,4,5-trimethoxyphenyl)-1H-imidazol-4-yl)methanone]
[1]; text on Tables 11-12, unit as printed, read-out: IC50 (average of all seven cell lines)
  IC50: > 10000 nM
[3]; [16]
  IC50: 4800 nM
[8]; [17]
  IC50: > 10000 nM
[6]; [18]
  IC50: > 10000 nM

## COc1cc(C(=O)c2c[nH]c(-c3ccc(Cl)cc3)n2)cc(OC)c1OC [12fa, (2-(4-chlorophenyl)-1H-imidazol-4-yl)(3,4,5-trimethoxyphenyl)methanone]
[1]; [19]
  IC50: 7.9 to 110 nM
[2]; [15]
  IC50: 35 nM
[3]; [16]
  IC50: 43 nM
[8]; [17]
  IC50: 26 nM
[6]; [18]
  IC50: 168 nM

## COc1ccc(-c2nc(C(=O)c3ccc(F)cc3)c[nH]2)cc1OC [12hb, (2-(3,4-dimethoxyphenyl)-1H-imidazol-4-yl)(4-fluorophenyl)methanone]
[1]; Tables 11-13, read-out: IC50 (average of all seven cell lines)
  IC50: 1000 to 50000 nM
[2]; [15]
  IC50: 10000 nM
[8]; [17]
  IC50: 1400 nM
[6]; [18]
  IC50: 4210 nM

## COc1cc(C(=O)c2c[nH]c(-c3ccc(OCc4ccccc4)cc3)n2)cc(OC)c1OC [12ja, (2-(4-(benzyloxy)phenyl)-1H-imidazol-4-yl)(3,4,5-trimethoxyphenyl)methanone]
[2]; [15]
  IC50: 10000 nM
[3]; [16]
  IC50: 5200 nM
[8]; [17]
  IC50: 5500 nM
[6]; [18]
  IC50: 10000 nM

## COc1cc(C(=O)c2c[nH]c(-c3ccc(O)cc3)n2)cc(OC)c1OC [12ka, (2-(4-hydroxyphenyl)-1H-imidazol-4-yl)(3,4,5-trimethoxyphenyl)methanone]
[3]; [16]
  IC50: 1600 nM
[8]; [17]
  IC50: 1800 nM
[6]; [18]
  IC50: 2400 nM

## O=C(c1cc(O)c(O)c(O)c1)c1c[nH]c(-c2ccc(Cl)cc2)n1 [13fa, (2-(4-chlorophenyl)-1H-imidazol-4-yl)(3,4,5-trihydroxyphenyl)methanone]
[2]; [15]
  IC50: 10000 nM
[3]; [16]
  IC50: 3900 nM
[8]; [17]
  IC50: 2100 nM
[6]; [18]
  IC50: 1810 nM

## O=C(c1cc(O)c(O)c(O)c1)c1c[nH]c(-c2ccc(O)c(O)c2)n1 [13ha]
[3]; Table 12, read-out: IC50 ± SEM, A375 (converted)
  IC50: > 10000 nM
[8]; Table 12, read-out: IC50 ± SEM, WM164 (converted)
  IC50: > 10000 nM
[6]; Table 12, read-out: IC50 ± SEM, B16-F1 (converted)
  IC50: > 10000 nM

## COc1cc(C(=O)c2nc(-c3ccc(F)cc3)c[nH]2)cc(OC)c1OC [70b, (4-(4-Fluorophenyl)-1H-imidazol-2-yl)(3,4,5-trimethoxyphenyl)methanone and (5-(4-fluorophenyl)-H-imidazol-2-yl)(3,4,5-trimethoxyphenyl)methanone]
[2]; [20]
  IC50: 196 nM
[4]; [21]
  IC50: 114 nM
[5]; [22]
  IC50: 13 nM
[7]; [23]
  IC50: 353 nM

## COc1cc(C(=O)c2nc(-c3ccc(O)cc3)c[nH]2)cc(OC)c1OC [70i, (4-(4-Hydroxyphenyl)-1H-imidazol-2-yl)(3,4,5-trimethoxyphenyl)methanone and (5-(4-hydroxyphenyl)-1H-imidazol-2-yl)(3,4,5-trimethoxyphenyl)methanone)]
[2]; [20]
  IC50: 155 nM
[4]; [21]
  IC50: 219 nM
[5]; [22]
  IC50: 122 nM
[7]; [23]
  IC50: 518 nM

## COc1cc(C(=O)c2nc(-c3ccccc3)cn2Cc2ccccc2)cc(OC)c1OC [70o, (1-Benzyl-4-phenyl-1H-imidazol-2-yl)(3,4,5-trimethoxyphenyl)methanone]
[2]; [24]
  IC50: 72 nM
[4]; [25]
  IC50: 67 nM
[5]; [26]
  IC50: 77 nM
[7]; [27]
  IC50: 160 nM

## COc1cc(C(=O)c2nc(-c3ccccc3)cn2C2CCCC2)cc(OC)c1OC [70p, (1-cyclopentyl-4-phenyl-1H-imidazol-2-yl)(3,4,5-trimethoxyphenyl)methanone]
[2]; [24]
  IC50: 56 nM
[4]; [25]
  IC50: 51 nM
[5]; [26]
  IC50: 63 nM
[7]; [27]
  IC50: 167 nM

## O=C(c1csc(-c2ccccc2)n1)c1c(F)c(F)c(F)c(F)c1F [compound 17]
[2]; [28]
  IC50: 1900 nM
[4]; [29]
  IC50: 2100 nM
[5]; [30]
  IC50: 1300 nM
[7]; [31]
  IC50: 2600 nM

## COc1ccc(C(=O)n2ccnc2-c2ccc(F)cc2)cc1 [compound 24]
[8]; Table 6A, read-out: IC50 ± SEM, WM164 (converted)
  IC50: > 10000 nM
[4]; Table 6A, read-out: IC50 ± SEM, LNCaP (converted)
  IC50: > 10000 nM

## COc1cc(C(=O)c2csc(-c3cccs3)n2)cc(OC)c1OC [compound 25]
[2]; [32]
  IC50: 44 nM
[4]; [33]
  IC50: 48 nM
[5]; [34]
  IC50: 13 nM
[7]; [35]
  IC50: 24 nM

## COc1cc(C(=O)c2csc(-c3ccc(N)cc3)n2)cc(OC)c1OC [compound 26]
[2]; [32]
  IC50: 16 nM
[4]; [33]
  IC50: 23 nM
[5]; [34]
  IC50: 15 nM
[7]; [35]
  IC50: 16 nM

## Cc1ccc(-c2nc(C(=O)c3ccc(F)cc3)cn2C(=O)c2ccc(F)cc2)cc1 [compound 29]
[2]; [28]
  IC50: > 10000 nM
[4]; [29]
  IC50: 1790 nM
[5]; [30]
  IC50: > 10000 nM
[7]; [31]
  IC50: > 10000 nM

## COc1cc(C(=O)c2cccc(-c3cc(OC)c(OC)c(OC)c3)c2)cc(OC)c1OC [compound 35]
[2]; [32]
  IC50: 40100 nM
[4]; [33]
  IC50: 1500 nM
[5]; [34]
  IC50: 15000 nM
[7]; [35]
  IC50: 21900 nM

## COc1cc(-c2cccc(CO)c2)cc(OC)c1OC [compound 39]
[2]; [28]
  IC50: 32500 nM
[4]; [29]
  IC50: 4300 nM
[5]; [30]
  IC50: 21400 nM
[7]; [31]
  IC50: 16800 nM
